According to article PMC12073177 (Molecules, 2025):

Columns and labels:
[1] = DPPH radical scavenging assay (antioxidant activity); assay type: biochemical; conditions: in methanol, 30 min, absorbance at 540 nm
Method: Absorbance was measured at 540 nm. All experiments were conducted in triplicate.

RAW 264.7 cells = assay: MTT cell viability assay in RAW 264.7 cells; assay type: cell-based, murine; conditions: RAW 264.7, MTT, 24 h, 5-40 μM
Method: (§1) Absorbance was measured at 570 nm using a microplate reader.
(§2) All experiments were performed in triplicate.

[2] = system: nitric oxide (NO) production in LPS-stimulated RAW 264.7 cells; assay: Nitric oxide production in LPS-stimulated RAW 264.7 cells (Griess reagent); assay type: cell-based, murine; conditions: for effect on NO production (result in words): 5, 10, 20 and 40 µM, LPS-stimulated RAW 264.7; for reduction of NO production: 40 µM, relative to the LPS-treated group, LPS 24 h
Method: NO levels in the culture supernatants were quantified using the Griess reagent assay, and absorbance was measured at 540 nm.
RAW 264.7 cells were maintained in Dulbecco’s Modified Eagle Medium (DMEM, Sigma-Aldrich, St. Louis, MO, USA) supplemented with 10% heat-inactivated fetal bovine serum (FBS, Invitrogen, Burlington, ON, Canada) and 1% (w/v) antibiotic-antimycotic solution (Invitrogen, Grand Island, NY, USA). The cells were cultured in a humidified incubator at 37 °C under 95% air and 5% CO2 conditions.
The production of NO was quantified by measuring nitrite levels in the culture supernatants using the Griess reagent (1% sulfanilamide, 0.1% N-(1-naphthyl)-ethylenediamine dihydrochloride, and 5% phosphoric acid). […] The cells were then stimulated with 0.5 μg/mL lipopolysaccharide (LPS, Sigma-Aldrich, CA, USA) for 24 h in a total volume of 200 μL. After incubation, 100 μL of culture supernatant was mixed with an equal volume of Griess reagent and incubated at room temperature for 5 min. Sodium nitrite was used as a standard for calibration, and nitrite concentration was determined by measuring absorbance at 540 nm. All experiments were conducted in triplicate.

NLRP3 = NLRP3 ELISA in LPS-stimulated RAW 264.7 cells; assay type: cell-based, murine; conditions: for inhibition at 40 µM: Mus musculus, RAW264.7, read-out: NLRP3 inhibition rate; for NLRP3 inhibition (result in words): 40 µM
Method: For evaluating the NLRP3 inhibitory activity, the highest concentration of 40 µM was selected, as this concentration had previously been confirmed to maintain cell viability (Section 2.4.1).
To assess NLRP3 inflammasome activation, RAW 264.7 macrophages were seeded at a density of 5 × 10^5 cells/well in 96-well plates. […] The levels of NLRP3 in the culture supernatant were quantified using a commercially available ELISA kit (Lsbio, WA, USA) according to the manufacturer’s protocol. Absorbance was measured at 450 nm, and NLRP3 concentrations were determined using a standard curve, expressed in ng/mL. To ensure statistical accuracy, all experiments were performed in duplicate.

β-secretase (BACE-1) = target: T1, β-secretase (BACE-1) (Homo sapiens, UniProt P56817); assay: BACE-1 FRET-based inhibition assay; assay type: biochemical; conditions: 60 min at room temperature, mean ± SD, ND = no detectable inhibitory activity
T1 construct: purchased Thermo Fisher Scientific, San Diego, CA, USA
T1 sequence (P56817 46-501): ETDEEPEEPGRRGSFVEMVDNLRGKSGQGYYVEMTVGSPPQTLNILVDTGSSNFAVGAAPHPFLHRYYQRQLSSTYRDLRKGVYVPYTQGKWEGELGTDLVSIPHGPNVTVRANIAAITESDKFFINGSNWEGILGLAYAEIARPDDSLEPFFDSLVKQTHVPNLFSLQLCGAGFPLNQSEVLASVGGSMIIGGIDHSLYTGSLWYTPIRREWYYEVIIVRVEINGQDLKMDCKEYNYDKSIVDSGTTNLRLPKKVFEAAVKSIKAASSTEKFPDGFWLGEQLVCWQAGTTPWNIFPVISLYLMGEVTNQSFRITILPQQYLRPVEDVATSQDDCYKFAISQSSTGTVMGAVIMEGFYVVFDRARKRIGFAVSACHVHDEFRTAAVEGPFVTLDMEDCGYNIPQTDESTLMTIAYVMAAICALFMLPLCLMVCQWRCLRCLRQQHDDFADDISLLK
Method: The reaction was initiated by adding 10 µL of a 3× BACE-1 enzyme solution. Plates were incubated at room temperature for 60 min in the dark. After incubation, 10 µL of 2.5 mM sodium acetate was added to terminate the reaction. Fluorescence was measured using a multimode plate reader (Multiskan™ GO, Thermo Scientific, Waltham, MA, USA) with an excitation wavelength of 545 nm and an emission wavelength of 585 nm. The IC50 values were determined by plotting relative fluorescence units per hour (RFU/h) against the logarithmic inhibitor concentrations. All experiments were performed in triplicate.

[3] = target: T2, tau protein (tau-BiFC SH-SY5Y cell line) (Homo sapiens, UniProt P10636); assay: Tau-BiFC SH-SY5Y anti-tau aggregation assay; assay type: cell-based; conditions: 10 μM, 24 h, compared to the control group
T2 construct: split fluorescent protein fragments for BiFC (complementing N- and C-terminal halves); expressed in transfected cells; host or cells: SH-SY5Y
T2 sequence (P10636 1-441 isoform P10636-8): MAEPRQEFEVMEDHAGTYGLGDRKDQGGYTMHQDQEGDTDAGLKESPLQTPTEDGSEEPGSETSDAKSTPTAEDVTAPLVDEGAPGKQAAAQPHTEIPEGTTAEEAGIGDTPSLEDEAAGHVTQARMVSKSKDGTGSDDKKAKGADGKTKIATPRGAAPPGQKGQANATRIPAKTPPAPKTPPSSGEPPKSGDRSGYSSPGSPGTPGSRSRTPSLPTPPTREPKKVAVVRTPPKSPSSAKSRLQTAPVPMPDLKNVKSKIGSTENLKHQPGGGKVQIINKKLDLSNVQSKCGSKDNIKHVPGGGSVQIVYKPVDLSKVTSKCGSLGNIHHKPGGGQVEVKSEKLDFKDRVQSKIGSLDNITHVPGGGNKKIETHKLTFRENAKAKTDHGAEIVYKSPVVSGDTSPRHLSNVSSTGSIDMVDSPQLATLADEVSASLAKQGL
Method: Cells were maintained at 37 °C in a humidified incubator with 5% CO2.

[4] = MTT cell viability assay in RAW 264.7 cells; assay type: cell-based, murine; conditions: mouse, RAW 264.7 macrophage cells, RAW 264.7, MTT; for viability at 24 h: tested concentrations up to 40 μM
Method: as §1, §2

Row | Structure (SMILES) | IC50 [1] | IC50 (β-secretase (BACE-1)) | cytotoxicity (result in words) (RAW 264.7 cells) | effect on NO production (result in words) [2] | inhibition at 40 µM (NLRP3) | anti-tau aggregation effect (BiFC fluorescence, result in words) [3] | viability at 24 h [4] | reduction of NO production [2] | viability at 24 h, 40 µM [4] | NLRP3 inhibition (result in words) (NLRP3) | BACE-1 IC50 (β-secretase (BACE-1))
1 | N[C@@H](CCC(=O)NNc1ccccn1)C(=O)O [RA-PYD, N^5-(pyridin-2-ylamino)glutamine] | 7.4 ± 3.54 µM | 0.32 ± 0.08 µM | no significant reduction in cell survival | did not significantly suppress NO production | ≥ 20% | significant reductions in tau aggregation |  |  |  |  | 
2 | COc1ccc(NNC(=O)CC[C@H](N)C(=O)O)cc1 [RA-4OMe, N^5-((4-methoxyphenyl)amino)glutamine] | 5.49 ± 0.63 µM | 25 ± 5.72 µM |  | concentration-dependent reduction in NO levels | ≥ 20% | moderate inhibitory effects | > 100% | 25~35% |  |  | 
3 | NC(CCC(=O)NNc1cccc(C(F)(F)F)c1)C(=O)O (stereo not drawn) [RA-3CF3, N^5-((3-(triflouromethyl)phenyl)amino)glutamine] | 31.7 ± 14.6 µM | 0.33 ± 0.79 µM |  | concentration-dependent reduction in NO levels | 10 to 15% | did not show significant anti-tau effects | > 100% |  |  |  | 
4 | CN(C)NC(=O)CC[C@H](N)C(=O)O [RA-DMe, N^5-(dimethylamino)glutamine] | 598 µM |  |  | moderate NO-reducing effect |  | did not exhibit significant anti-tau aggregation activity |  |  | > 80% | no significant NLRP3-inhibitory effects | no detectable BACE-1 inhibitory activity (ND)
5 | CC(C)NNC(=O)CC[C@H](N)C(=O)O [RA-IPr, N^5-(Isopropylamino)glutamine] | 2580 ± 359 µM |  | no significant reduction in cell survival | did not significantly suppress NO production |  | did not exhibit significant anti-tau aggregation activity |  |  |  | no significant NLRP3-inhibitory effects | no detectable BACE-1 inhibitory activity (ND)
6 | N[C@@H](CCC(=O)NNc1ccc2ccccc2n1)C(=O)O [RA-2Q, N^5-(quinolin-2-ylamino)glutamine] | 9.7 ± 0.32 µM |  | no significant reduction in cell survival | did not significantly suppress NO production | ≥ 20% | significant reductions in tau aggregation |  |  |  |  | no detectable BACE-1 inhibitory activity (ND)

Continued, in another order:

Row | IC50 [1] | IC50 (β-secretase (BACE-1)) | Structure (SMILES) | cytotoxicity (result in words) (RAW 264.7 cells) | effect on NO production (result in words) [2] | inhibition at 40 µM (NLRP3) | anti-tau aggregation effect (BiFC fluorescence, result in words) [3] | viability at 24 h [4] | reduction of NO production [2] | viability at 24 h, 40 µM [4] | NLRP3 inhibition (result in words) (NLRP3) | BACE-1 IC50 (β-secretase (BACE-1))
7 | 3.77 ± 0.09 µM | 9.89 ± 13.6 µM | NC(CCC(=O)NNc1ccc(OC(F)(F)F)cc1)C(=O)O (stereo not drawn) [RA-4OCF3, N^5-((4-(triflouromethoxy)phenyl)amino)glutamine] |  | concentration-dependent reduction in NO levels | ≥ 20% |  | > 100% |  |  |  | 
8 | 1.77 ± 0.12 µM | 0.66 ± 1.05 µM | NC(CCC(=O)NNc1cccc2ccccc12)C(=O)O (stereo not drawn) [RA-NAP] |  | moderate NO-reducing effect | 10 to 15% | significant reductions in tau aggregation |  |  | > 80% |  | 
9 | 3 ± 0.03 µM | 11.6 ± 14 µM | NC(CCC(=O)NNc1ccccc1C(F)(F)F)C(=O)O (stereo not drawn) [RA-2CF3, N^5-((2-(triflouromethyl)phenyl)amino)glutamine] |  | moderate NO-reducing effect | ≥ 20% |  | > 100% |  |  |  | 
10 | 2.81 ± 0.03 µM | 7.97 ± 2.46 µM | COc1ccccc1NNC(=O)CC[C@H](N)C(=O)O [RA-2OMe, N^5-((2-methoxyphenyl)amino)glutamine] |  | concentration-dependent reduction in NO levels | ≥ 20% | moderate inhibitory effects | > 100% | 25~35% |  |  | 
